# From PubChem BioAssay (NCI)
#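 Cells were grown in 96-well plates and exposed to each compound for 48 hours at five concentrations; endpoints were interpolated linearly between bracketing concentrations, or set to the highest concentration if not reached. GI50 marks 50% less growth. TGI marks complete inhibition of growth.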 Where a SMILES comes first, the peptide text is derived from it. [ ]: non-standard residue; d: D form.
# Legend:
# Test in all cases: NCI anticancer screen, dose series, 48 h
# [1] = test system: U251 CNS
# [2] = test system: HT29 colon
# [3] = test system: COLO 205 colon
# [4] = test system: HL-60(TB) leukemia
# [5] = test system: NCI-H522 lung
# [6] = test system: NCI-H460 lung
# [7] = test system: UACC-257 melanoma
# [8] = test system: IGROV1 ovarian
# [9] = test system: OVCAR-3 ovarian
# [10] = test system: SNB-19 CNS
Structure (SMILES),GI50 [1] [µM],TGI [1] [µM],GI50 [2] [µM],TGI [2] [µM],GI50 [3] [µM],TGI [3] [µM],GI50 [4] [µM],TGI [4] [µM],TGI [5] [µM],GI50 [6] [µM],TGI [6] [µM],GI50 [7] [µM],TGI [7] [µM],GI50 [8] [µM],TGI [8] [µM],GI50 [9] [µM],TGI [9] [µM],GI50 [10] [µM],TGI [10] [µM],GI50 [5] [µM]
O=C(/C=C/c1ccc(Cl)cc1Cl)c1ccc(Cl)cc1Cl,14.1,34.1,15.2,> 60.1,20.8,> 65.4,18.3,43.9,1.16,42.1,> 100,21.7,55.3,22.3,55.8,20.6,48.1,29,> 100,
O=C1C(OC(=O)c2ccccc2)=C(c2ccc(O)cc2)C(=O)C(OC(=O)c2ccccc2)=C1c1ccc(O)cc1,,> 100,,> 100,,> 100,,> 100,> 100,,> 100,,> 100,,> 100,,> 100,,> 100,
CC(=O)[O][Hg][c]1s[c]([Hg][O]C(C)=O)[c]([Hg][O]C(C)=O)[c]1[Hg][O]C(C)=O,,,19.5,> 100,15.9,38.6,5.12,> 100,> 100,2.35,> 100,,,3.61,23.4,21.4,> 100,4.27,16.3,2.54
COC(=O)C(C)Oc1ccc(O)cc1 (stereo not given),,> 100,,> 100,,> 100,,> 100,> 100,,> 100,,> 100,,> 100,,> 100,,> 100,
COc1ccc(F)cc1-c1ccnc2[nH]c(C3=CCN(C4CCC(CC(=O)O)CC4)CC3)cc12 (stereo not given),0.137,> 100,0.234,3.93,0.0747,0.561,0.0739,1.45,0.714,0.236,> 100,0.307,> 100,0.168,> 100,0.107,> 100,0.152,> 100,0.159
O=C(N/C(=C\c1ccc(F)cc1)c1nc2ccccc2[nH]1)c1ccccc1,,> 100,,> 100,,> 100,,,> 100,,> 100,,> 100,,> 100,,> 100,,> 100,
CCCC(=O)OC(OC(=O)CCC)c1ccc([N+](=O)[O-])o1,,> 100,,42.8,,54.9,,88.3,28.9,,> 100,,51.9,,28.3,,41.4,,> 100,
CN(C)CCOc1ccc2c(c1)C(=O)/C(=C\c1ncc([N+](=O)[O-])n1C)C2,1.12,4.75,0.346,2.25,0.25,0.628,0.235,1.09,0.492,0.217,0.808,0.917,3.19,0.147,0.378,0.359,1.26,1.15,3.18,0.191
C=CCO[C@H]1CC[C@@]2(C)C(CC[C@]3(C)C2CC=C2[C@@H]4[C@@H](C)C(C)CC[C@]4(C(=O)O)CCC23C)C1(C)C (stereo not given in full),,30.3,,31.6,,32.4,,22,28.4,,36.3,,32.3,,33.9,,29.8,,32.2,
COC(=O)C(=O)C(C#N)c1c(Cl)cccc1Cl (stereo not given),,,,> 100,,> 100,,> 100,> 100,,> 100,,> 100,,> 100,,> 100,,> 100,
CN(C)C(=S)/N=c1\ss/c(=N\S(=O)(=O)c2ccccc2)n1C,,> 100,,> 100,,,,> 100,> 100,,> 100,,> 100,,> 100,,,,> 100,
CSCC[C@H](NC(=O)[C@@H](N)CC(N)=O)C(=O)N[C@@H](Cc1c[nH]c2ccccc12)C(=O)N[C@@H](CCC(N)=O)C(=O)N[C@@H](CCC(=O)O)C(=O)N[C@H](C(=O)NCC(=O)N[C@@H](CCCCN)C(=O)N[C@H](C)C(=O)O)C(C)C (H-NMWQEVGK[dA]-OH),,> 100,,> 100,,> 100,,> 100,,,> 100,,> 100,,> 100,,> 100,,> 100,
c1ccc(-c2cc3n4c(-c5ccccc5)nn(-c5ccccc5)c4cnc-3n2)cc1,7.85,> 50,> 50,> 50,,,> 50,> 50,> 50,,,> 50,> 50,> 50,> 50,> 50,> 50,12.5,> 50,> 50
C/C(=N\Nc1n[nH]c(=S)n1N)c1c(O)cc(C)oc1=O,,> 100,,> 100,,,,> 100,> 100,,> 100,,> 100,,,,,,> 100,
CC(=O)/C(=C/N1CCN(C(=O)c2ccco2)C1=S)C(=O)c1ccccc1,13.4,> 50,16.9,> 50,16.5,45.1,8.19,19.3,,7.04,22.9,,,10.9,28.4,17.2,> 50,16.3,> 50,
CCOc1ccccc1N=Cc1c2ccccc2cc2ccccc12,,> 63.9,,54.2,,> 88.7,,53,,,> 100,,> 74.4,,49.9,,> 67.6,,> 88.4,
COc1ccc2c(c1)[nH]c1c3ccc(OC)cc3oc(=O)c21,,> 100,,> 100,,> 100,,> 100,,,> 100,,> 100,,> 100,,> 100,,> 100,
CCOC(=O)C(=O)Nc1nc2ccc(C)cc2s1,,> 100,,> 100,,> 100,,,> 100,,> 100,,> 100,,> 100,,> 100,,> 100,
Cc1nc(-n2nc(-c3ccccc3)cc2-c2ccccc2)sc1C(=O)CC(=O)C(=O)Nc1ccc(O)cc1,,> 100,,> 100,,> 100,,> 100,> 100,,,,> 100,,> 100,,> 100,,> 100,
O=C(CCc1cc(-c2ccc(F)cc2)n[nH]1)N(Cc1ccccc1)Cc1ccccc1,,> 100,,> 100,,> 100,,,> 100,,> 100,,> 100,,> 100,,> 100,,> 100,

Structure (SMILES),GI50 [1] [µM],TGI [1] [µM],GI50 [2] [µM],TGI [2] [µM],GI50 [3] [µM],TGI [3] [µM],GI50 [4] [µM],TGI [4] [µM],TGI [5] [µM],GI50 [6] [µM],TGI [6] [µM],GI50 [7] [µM],TGI [7] [µM],GI50 [8] [µM],TGI [8] [µM],GI50 [9] [µM],TGI [9] [µM],GI50 [10] [µM],TGI [10] [µM],GI50 [5] [µM]
C[C@@H](C[C@H](CCO)c1ccccc1)c1ccc2ccccc2c1,1.57,2.94,1.43,2.8,1.75,3.41,1.91,4,2.78,1.79,3.42,,,1.57,3.01,1.54,2.91,1.79,3.42,1.33
CC/C(C)=C1\CCC(CN(C)C)C1=O (stereo not given),,,,46.5,,,,43.7,,,33.4,,31.4,,36.8,,33.2,,> 100,
Cc1ccc(C)c(NC(=O)C(=O)Nn2c(=S)[nH]c3ccccc3c2=O)c1,,> 100,,> 100,,> 100,,> 100,> 100,,> 100,,> 100,,> 100,,,,> 100,
CC1OC(=O)N2CCC=CC12 (stereo not given),,> 100,,> 100,,> 100,,,> 100,,> 100,,> 100,,> 100,,> 100,,> 100,
Cc1ccc([N+]2=NC(c3ccccc3)=NN(c3ccccc3)C2)cc1,,> 100,,> 100,,> 100,,> 100,,,> 100,,> 100,,> 100,,> 100,,> 100,
N#CC(C#N)C(c1ccccc1)c1ccccc1,,> 100,,,,> 100,,> 100,> 100,,> 100,,> 100,,> 100,,> 100,,> 100,
CN1C/C(=C\c2ccc(C(=O)O)cc2)C(=O)/C(=C/c2ccc(C(=O)O)cc2)C1,,> 100,,> 100,,> 100,,> 100,,,> 100,,> 100,,> 100,,> 100,,,
C=Cc1cc(OC)c2c(c1)c(=O)oc1c2cc(OC)c2c(O)ccc(C3OC(C(C)O)C(O)C3O)c21 (stereo not given),,,0.00666,> 1,0.0113,0.102,0.00216,0.0197,0.03,0.00573,0.166,0.0269,0.0805,0.0034,0.104,0.0155,0.0423,0.028,0.246,0.00475
CCSc1nc(N)c2cnn(CC)c2n1,4.12,86,,,18.9,> 100,2.33,32.5,> 100,23.9,78,10.2,36.5,2.14,9.13,4.59,42.6,30.2,> 100,> 100
C#C[C@@H](CCCC)OC(=O)N[C@H](C)c1ccccc1,,> 100,,> 100,,,,42,,,> 100,,> 100,,52.6,,> 100,,> 100,
N/C(CC(=O)NOC(=O)c1ccccc1)=N/OC(=O)c1ccccc1,,> 100,,> 100,,> 100,,> 100,,,> 100,,> 100,,31.7,,> 100,,> 100,
CC(=O)OC1=C(CC(C)(C)C)C(=O)c2ccccc2C1=O,,> 100,,> 100,,72.5,,44.5,,,79.3,,> 100,,> 100,,,,> 100,
Cc1cn2cc(-c3ccc4c(c3)CC(=O)N4)nc2s1,> 100,> 100,85.5,> 100,> 100,> 100,> 100,> 100,> 100,,,> 100,> 100,> 100,> 100,> 100,> 100,> 100,> 100,99.6
CCOC(=O)CC(C)C1(C=O)CCCCC1=O (stereo not given),,> 100,,,,> 100,,> 100,> 100,,> 100,,> 100,,> 100,,> 100,,> 100,
CN(C)Cc1cc(C(C)(C)C)cc(CN(C)C)c1O,,> 100,,> 100,,> 100,,,> 100,,> 100,,> 100,,> 100,,> 100,,> 100,
Oc1ccc(O)c(-n2cccn2)c1-n1cccn1,,> 100,,> 100,,90.1,,> 10,73.1,,> 100,,,,> 100,,> 100,,> 100,
C=CCCC(=O)CC(=O)OCc1ccccc1,,> 100,,> 100,,> 100,,> 100,,,> 100,,> 100,,> 100,,> 100,,> 100,
COC1CC(n2cc(F)c(N)nc2=O)OC1CO (stereo not given),,> 100,,> 100,,> 100,,> 100,> 100,,> 100,,> 100,,,,> 100,,> 100,
O=[N+]([O-])c1ccc2nc(-c3ccc(Cl)cc3)[nH]c2c1,,,,32.8,,30.7,,,30.5,,45.4,,43.2,,89.5,,89.3,,80.1,
